# Assay results taken from ChEMBL document CHEMBL1129290 (J Med Chem, 1996).
# Legend:
# [1] = biological target: Prostaglandin G/H synthase 1 (Homo sapiens, UniProt P23219)
# [2] = species on record: Rattus norvegicus; assay: animal or person; conditions: read-out: Inhibition
# [3] = biological target: Cyclooxygenase (Rattus norvegicus) (UniProt P35355+Q63921); conditions: at 30 mg/kg
# [4] = species on record: Rattus norvegicus; assay: animal or person; assay type: functional
# [5] = species on record: Rattus norvegicus; assay: animal or person; assay type: functional; remark: listed apart in the source
# [6] = species on record: Rattus norvegicus; assay: animal or person; conditions: read-out: Inhibition; remark: listed apart in the source
# [7] = in vivo; conditions: rat
# [8] = in vivo; conditions: rat, po, 10 mg/kg
# [9] = species on record: Rattus norvegicus; assay: animal or person; conditions: read-out: Inhibition; remark: listed apart in the source
# [10] = species on record: Rattus norvegicus; assay: animal or person; conditions: read-out: Inhibition; remark: listed apart in the source
# Prostaglandin G/H synthase 1, sequence (P23219 whole entry): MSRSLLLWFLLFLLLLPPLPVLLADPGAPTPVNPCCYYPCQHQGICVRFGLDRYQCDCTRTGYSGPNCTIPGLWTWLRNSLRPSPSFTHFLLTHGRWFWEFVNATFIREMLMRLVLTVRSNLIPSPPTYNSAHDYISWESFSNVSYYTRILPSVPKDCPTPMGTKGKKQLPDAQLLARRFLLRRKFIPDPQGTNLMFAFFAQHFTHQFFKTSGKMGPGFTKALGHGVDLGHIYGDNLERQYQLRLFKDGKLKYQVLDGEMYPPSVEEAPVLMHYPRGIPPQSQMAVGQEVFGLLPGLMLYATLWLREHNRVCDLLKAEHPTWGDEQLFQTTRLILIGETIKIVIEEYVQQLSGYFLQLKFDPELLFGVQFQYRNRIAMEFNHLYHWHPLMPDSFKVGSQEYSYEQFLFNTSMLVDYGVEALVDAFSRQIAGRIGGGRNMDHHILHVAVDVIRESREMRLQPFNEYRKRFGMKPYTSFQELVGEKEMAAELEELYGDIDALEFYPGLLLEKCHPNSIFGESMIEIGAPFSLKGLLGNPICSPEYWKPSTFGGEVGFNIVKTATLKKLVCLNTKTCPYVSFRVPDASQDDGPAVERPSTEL
Structure (SMILES),inhibition [3] [%],ED50 [5] [mg/kg],inhibition in vivo at 30 mg/kg [6] [%],other results
CS(=O)(=O)c1ccc(C2=CC3(C=C2c2ccc(F)cc2)CC3)cc1,,,,IC50 [1]: 1320 nM
NS(=O)(=O)c1ccc(C2=C(c3ccc(F)cc3)CC3(CC3)C2)cc1,60,17.6,,inhibition in vivo at 1 mg/kg [2]: 85%; ED50 [4]: 0.24 mg/kg
COc1c(Cl)cc(C2=C(c3ccc(S(C)(=O)=O)cc3)CC3(CC3)C2)cc1Cl,44,32.7,50,inhibition in vivo at 1 mg/kg [2]: 57%; ED50 [4]: 0.52 mg/kg
CS(=O)(=O)c1ccc(C2=C(c3ccc(F)cc3)CCC2)cc1 [SC-57666],,,,half-life [7]: 1.6 h; bioavailability [8]: 11%
CS(=O)(=O)c1ccc(C2=C(c3ccc(OC(F)(F)F)cc3)CC3(CC3)C2)cc1,20,,,
NS(=O)(=O)c1ccc(C2=C(c3ccc(Cl)c(Cl)c3)CC3(CC3)C2)cc1,,31.3,,IC50 [1]: 380 nM; inhibition in vivo at 0.3 mg/kg [10]: 72%
COc1ccc(C2=CC3(C=C2c2ccc(S(C)(=O)=O)cc2)CC3)cc1Cl,,,,IC50 [1]: 3380 nM
CS(=O)(=O)c1ccc(C2=C(c3ccc(C(F)(F)F)cc3)CC3(CC3)C2)cc1,35,,,
CS(=O)(=O)c1ccc(C2=C(c3ccc(F)cc3)CC3(CCC3)C2)cc1,23,,,
NS(=O)(=O)c1ccc(C2=C(c3ccc(C(F)(F)F)cc3)CC3(CC3)C2)cc1,46,46.7,40,ED50 [4]: 0.04 mg/kg; inhibition in vivo at 2 mg/kg [9]: 92%
COc1ccc(C2=C(c3ccc(S(C)(=O)=O)cc3)CC3(CC3)C2)cc1,0,,,

# More lines, main results first:
inhibition [3] [%],Structure (SMILES),ED50 [5] [mg/kg],inhibition in vivo at 30 mg/kg [6] [%],other results
38,CS(=O)(=O)c1ccc(C2=C(c3ccc(F)c(Cl)c3)CC3(CC3)C2)cc1,,,
23,CS(=O)(=O)c1ccc(C2=C(c3ccc(F)c(F)c3)CC3(CC3)C2)cc1,,,
40,COc1ccc(C2=C(c3ccc(S(N)(=O)=O)cc3)CC3(CC3)C2)cc1F,40.8,38,inhibition in vivo at 1 mg/kg [2]: 89%; ED50 [4]: 0.08 mg/kg
47,COc1ccc(C2=C(c3ccc(S(N)(=O)=O)cc3)CC3(CC3)C2)cc1Cl,35.4,47,inhibition in vivo at 1 mg/kg [2]: 79%; ED50 [4]: 0.21 mg/kg
42,COc1ccc(C2=C(c3ccc(S(C)(=O)=O)cc3)CC3(CC3)C2)cc1Cl,27.7,45,inhibition in vivo at 2 mg/kg [9]: 12%
21,COc1ccc(C2=C(c3ccc(S(C)(=O)=O)cc3)CC3(CC3)C2)cc1Br,,,
49,CS(=O)(=O)c1ccc(C2=C(c3ccc(F)cc3)CC3(CC3)C2)cc1,,31,inhibition in vivo at 1 mg/kg [2]: 68%; half-life [7]: 2.3 h; ED50 [4]: 0.3 mg/kg; bioavailability [8]: 58%
18,NS(=O)(=O)c1ccc(C2=C(c3ccc(F)c(F)c3)CC3(CC3)C2)cc1,,,
30,COc1ccc(C2=C(c3ccc(S(C)(=O)=O)cc3)CC3(CC3)C2)cc1F,,19,inhibition in vivo at 2 mg/kg [9]: 63%
23,CS(=O)(=O)c1ccc(C2=C(c3ccc(Cl)c(Cl)c3)CC3(CC3)C2)cc1,,,
